Measured values: patent publication US20130237478A1, “COMPOSITIONS AND METHODS FOR TREATMENT OF PERIPHERAL VASCULAR DISEASE” (TARIX PHARMACEUTICALS LTD., priority 2012, published 2013)
Entries after “also recorded” stand apart in the source; their conditions may differ. Positions of bridges follow the written chain, without caps; N, C: chain ends. No end group written: not given here.

Experiments:
hind limb ischemia = assay: Blood flow by non contact laser Doppler in mouse hind limb ischemia model; format: in vivo, Balb/c mice
Text: A stable hind limb ischemia model has been described previously and is generally characterized by uniform ischemic damage useful for examining the effect of various therapies (Goto, et al. Tokai J Exp Clin Med, 31(3):128 2006; Kang Y, et al. PLoS One. 2009; 4(1):e4275)). The hind limb ischemia model in mice used in this example involves two ligations of the proximal end of the femoral artery and its dissection between the two ligatures. The surgery causes obstruction of the blood flow and subsequently leads to severe ischemic damage (Goto, et al.; Kang, et al.). In this experiment, healthy adult female Balb/c mice were used. Hind limb ischemia was induced in mice using protocols previously described. Briefly, Balb/c female mice were maintained on a standard diet with water available ad libitum. Mice were anesthetized and an incision was made in the skin in the inguinal area. The femoral artery was ligated twice with 6-0 silk thread and transected between the ligatures after this the wound was closed with 4-0 silk thread and the mouse was allowed to recover. […]
Blood flow in legs from both sides of the animals was measured with a non contact laser Doppler before surgery and on days: 1, 7, 15, 21, 28, 35, 42 and 49 post operation. Blood flow measurements were expressed as the ratio of the flow in the ischemic limb to that in the normal limb.
The model used in this example is the same as for Example 1. Briefly, the hind limb ischemia model in mice used in this example involves two ligations of the proximal end of the femoral artery and its dissection between the two ligatures. The surgery causes obstruction of the blood flow and subsequently leads to severe ischemic damage (Goto, et al.; Kang, et al.). In this experiment, healthy adult female Balb/c mice were used. Hind limb ischemia was induced in mice using protocols previously described. Briefly, Balb/c female mice were maintained on a standard diet with water available ad libitum. Mice were anesthetized and an incision was made in the skin in the inguinal area. The femoral artery was ligated twice with 6-0 silk thread and transected between the ligatures after this the wound was closed with 4-0 silk thread and the mouse was allowed to recover.
An Angiotensin (1-7) polypeptide composition (PanCyte) and vehicle control (DPBS) were supplied as ready to use solutions and were stored at 4° C. until use. PanCyte was injected subcutaneously (500 μg/kg or 50 μg/kg) daily starting on day 1, 24 hours after inducing ischemia, until the end of the study. Negative control mice were injected subcutaneously with a vehicle.
The model and procedures used for this example is the same as for those in Examples 1 and 2, unless otherwise specified.
An Angiotensin (1-7) polypeptide composition (PanCyte, cyclized Asp^1-Arg^2-Val^3-Ser^4-Ile^5-His^6-Cys (SEQ ID NO:22)) and vehicle control (DPBS) were supplied as ready to use solutions and were stored at 4° C. until use. In groups 2F-5F, PanCyte was injected subcutaneously (1 μg/kg, 5 μg/kg, 25 μg/kg, 50 μg/kg) daily starting on day 1, 24 hours after inducing ischemia, until the end of the study. In group 6F, an osmotic Alzet pump was implanted subcutaneously and provided for continuous release of PanCyte over the duration of the study. Negative control mice were injected subcutaneously with vehicle (DPBS).

[1] = test system: Transient middle cerebral artery occlusion (tMCAO); assay: Stepping test (forelimb akinesia) after tMCAO stroke; format: in vivo, rats; conditions: all experimental conditions (Table 22); by Day 28 post-surgery
Experimental: (§1) For the purposes of this example, Transient middle cerebral artery occlusion (tMCAO) procedure Day is defined as “Day 1” in this study. On the day of surgery anesthesia were induced with 4% isoflurane in a mixture of 70% N2O and 30% O2 and maintained with 1.5-2% isoflurane.
The tMCAO procedures were performed according to the method described R. Schmid-Elsaesser et al. Briefly, the right CCA (Common Carotid Artery) was exposed through a midline neck incision and carefully dissected free from surrounding nerves and fascia—from its bifurcation to the base of the skull. The occipital artery branches of the ECA (External Carotid Artery) were then isolated, and these branches were dissected and coagulated. The ECA was dissected further distally and coagulated along with the terminal lingual and maxillary artery branches, which was then divided. The ICA (Internal Carotid Artery) was isolated and carefully separated from the adjacent vagus nerve, and the pterygopalatine artery was ligated close to its origin with a 5-0 nylon suture (SMI, Belgium). Next, a 4-0 silk suture was tied loosely around the mobilized ECA stump, and a 4 cm length of 4-0 monofilament nylon suture (the tip of the suture was blunted by using a flame, and the suture was coated with polylysine, prior to insertion) was inserted through the proximal ECA into the ICA and thence into the circle of Willis, effectively occluding the MCA. The surgical wound was closed and the animals were returned to their cages to recover from anesthesia. […]
Animals were tested for forelimb akinesia in a stepping test (ST). The animal was held with its hind limbs fixed with one hand and the forelimb not to be monitored with the other, while the unrestrained fore-paw touches the table. The number of adjusting steps are counted while the animal is moved sideways along the table surface (85 cm in approximately five seconds), in the forehand & backhand direction for both forelimbs. […]

[2] = test system: Transient middle cerebral artery occlusion (tMCAO); assay: Body swing test after tMCAO stroke; format: in vivo, rats; conditions: for body swing performance vs vehicle: by Day 28
Experimental: as §1
The tMCAO procedures were performed according to the method described R. Schmid-Elsaesser et al. Briefly, the right CCA (Common Carotid Artery) was exposed through a midline neck incision and carefully dissected free from surrounding nerves and fascia—from its bifurcation to the base of the skull. The occipital artery branches of the ECA (External Carotid Artery) were then isolated, and these branches were dissected and coagulated. The ECA was dissected further distally and coagulated along with the terminal lingual and maxillary artery branches, which was then divided. The ICA (Internal Carotid Artery) was isolated and carefully separated from the adjacent vagus nerve, and the pterygopalatine artery was ligated close to its origin with a 5-0 nylon suture (SMI, Belgium). Next, a 4-0 silk suture was tied loosely around the mobilized ECA stump, and a 4 cm length of 4-0 monofilament nylon suture (the tip of the suture was blunted by using a flame, and the suture was coated with polylysine, prior to insertion) was inserted through the proximal ECA into the ICA and thence into the circle of Willis, effectively occluding the MCA. The surgical wound was closed and the animals were returned to their cages to recover from anesthesia. One hour and a half after occlusion rats were re-anesthetized, the monofilament was withdrawn to allow reperfusion, the surgical wound was closed and rats were returned to their cages.
Animals were subjected to a modified Modified Neurological Rating Scale (mNRS) at 24 hours post reperfusion. Only animals with an overall score of ≧10 were included in this study. Animals were allocated into the test groups, according to the mNRS results on day 2, in order to have similar distribution of rats performance between groups. Starting on day 2, 24 hours post-surgery, animals in groups 4, 5 and 7 were implanted subcutaneously with an osmotic Alzet pump and treated with either 500 μg/kg TXA127, 500 μg/kg PanCyte, or 50 μg/kg Linear PanCyte. Animals in groups 2, 3 and 6 received 500 μg/kg or 1,000 μg/kg TXA127 or 500 μg/kg PanCyte, administered subcutaneously via daily injection. Animals in group 1 were treated with a daily subcutaneous injection of a PBS (vehicle).
Each rat was held approximately one inch from the base of its tail. It was then elevated to an inch above a surface of a table. The rat was held in the vertical axis, defined as no more than 10° to either the left or the right side. A swing was recorded whenever the rat moves its head out of the vertical axis to either side. Before attempting another swing, the rat must return to the vertical position for the next swing to be counted. Twenty (20) total swings were counted. A normal rat typically has an equal number of swings to either side. Following focal ischemia, the rat tends to swing to the contralateral side (left side in this case). Body swing scores are expressed as a percentage of […] over total swings.

Substance: cyclized Asp^1-Arg^2-Val^3-Ser^4-Ile^5-His^6-Cys (SEQ ID NO:22) (DRVSIHC; bridge 4-7; not fully specified; printed as Asp1-Arg2-Val3-Ser4-Ile5-His6-Cys7) [PanCyte, cyclic angiotensin peptide]
- blood flow restored (hind limb ischemia; Example 2, 50 μg/kg SC): 85 % of its normal values
- improvement in blood flow vs vehicle (hind limb ischemia; Example 2, 50 μg/kg SC daily (3F), from day 21 up to day 49, p<0.05-0.001): statistically significant improvement in blood flow
- blood flow restored (hind limb ischemia; Example 2, 500 μg/kg SC): 85 % of its normal values
- improvement in blood flow vs vehicle (hind limb ischemia; Example 2, 500 μg/kg SC daily (2F), from day 21 up to day 49, p<0.05-0.001): statistically significant improvement in blood flow
- improvement in blood flow vs vehicle (hind limb ischemia; Example 3, 1 μg/kg SC daily (2F), days 42 and 49): blood flow improvement reached statistically significance
- improvement in blood flow vs vehicle (hind limb ischemia; Example 3, 5 μg/kg SC daily (3F), days 42 and 49): blood flow improvement reached statistically significance
- improvement in blood flow vs vehicle (hind limb ischemia; Example 3, 25 μg/kg SC daily (4F), days 42 and 49): blood flow improvement reached statistically significance
- improvement in blood flow vs vehicle (hind limb ischemia; Example 3, 50 μg/kg SC daily injections (5F), day 35 up to day 49): significant improvement in blood flow
- improvement in blood flow vs vehicle (hind limb ischemia; Example 3, 50 μg/kg continuous SC by Alzet pump (6F), day 14 up to day 49): Statistically significant improvement in blood flow; also recorded: particularly good and early blood perfusion restoration
- blood flow restored (hind limb ischemia; Example 3, SC 1-50 μg/kg, dose dependent manner): up to 84 % of its normal values
- stepping test performance vs vehicle [1]: significantly improved the performance
- body swing performance vs vehicle ([2]; 500 μg/kg SC daily): significant improvement in performance
- body swing performance ([2]; 500 μg/kg by Alzet pump, by Day 21): showed improvement
- body swing performance vs vehicle ([2]; 500 μg/kg by Alzet pump): significant improvement in performance
